Test results taken from patent publication US8283361B2 (AstraZeneca AB, priority 2008, dated 2012).

These molecules were tested against S. aureus GyrB ATPase (Staphylococcus aureus, UniProt P0A0K8) (assay: biochemical). Settings: compound at 1 μM; one value per test if tested more than once; read-out: % Inhibition of S. aureus GyrB ATPase.
Chain of S. aureus GyrB ATPase (P0A0K8 whole entry): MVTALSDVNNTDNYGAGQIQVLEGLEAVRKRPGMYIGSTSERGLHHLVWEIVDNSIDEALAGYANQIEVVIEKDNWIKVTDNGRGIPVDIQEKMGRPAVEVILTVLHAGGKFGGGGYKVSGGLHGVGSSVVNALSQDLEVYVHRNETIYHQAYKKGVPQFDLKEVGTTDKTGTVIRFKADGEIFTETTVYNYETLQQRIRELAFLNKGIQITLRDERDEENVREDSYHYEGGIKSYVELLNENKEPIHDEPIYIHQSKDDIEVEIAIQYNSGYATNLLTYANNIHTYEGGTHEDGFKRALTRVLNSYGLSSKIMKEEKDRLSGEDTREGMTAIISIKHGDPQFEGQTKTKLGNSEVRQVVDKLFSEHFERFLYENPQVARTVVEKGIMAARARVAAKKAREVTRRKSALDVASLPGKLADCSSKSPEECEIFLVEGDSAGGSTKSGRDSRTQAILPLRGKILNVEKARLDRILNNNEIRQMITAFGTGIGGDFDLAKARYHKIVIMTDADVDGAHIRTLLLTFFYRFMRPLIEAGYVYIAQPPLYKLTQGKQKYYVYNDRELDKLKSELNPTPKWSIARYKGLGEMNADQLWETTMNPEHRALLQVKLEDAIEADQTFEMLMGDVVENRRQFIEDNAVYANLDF
Chain of S. aureus GyrB ATPase (P0AES4 whole entry, further chain): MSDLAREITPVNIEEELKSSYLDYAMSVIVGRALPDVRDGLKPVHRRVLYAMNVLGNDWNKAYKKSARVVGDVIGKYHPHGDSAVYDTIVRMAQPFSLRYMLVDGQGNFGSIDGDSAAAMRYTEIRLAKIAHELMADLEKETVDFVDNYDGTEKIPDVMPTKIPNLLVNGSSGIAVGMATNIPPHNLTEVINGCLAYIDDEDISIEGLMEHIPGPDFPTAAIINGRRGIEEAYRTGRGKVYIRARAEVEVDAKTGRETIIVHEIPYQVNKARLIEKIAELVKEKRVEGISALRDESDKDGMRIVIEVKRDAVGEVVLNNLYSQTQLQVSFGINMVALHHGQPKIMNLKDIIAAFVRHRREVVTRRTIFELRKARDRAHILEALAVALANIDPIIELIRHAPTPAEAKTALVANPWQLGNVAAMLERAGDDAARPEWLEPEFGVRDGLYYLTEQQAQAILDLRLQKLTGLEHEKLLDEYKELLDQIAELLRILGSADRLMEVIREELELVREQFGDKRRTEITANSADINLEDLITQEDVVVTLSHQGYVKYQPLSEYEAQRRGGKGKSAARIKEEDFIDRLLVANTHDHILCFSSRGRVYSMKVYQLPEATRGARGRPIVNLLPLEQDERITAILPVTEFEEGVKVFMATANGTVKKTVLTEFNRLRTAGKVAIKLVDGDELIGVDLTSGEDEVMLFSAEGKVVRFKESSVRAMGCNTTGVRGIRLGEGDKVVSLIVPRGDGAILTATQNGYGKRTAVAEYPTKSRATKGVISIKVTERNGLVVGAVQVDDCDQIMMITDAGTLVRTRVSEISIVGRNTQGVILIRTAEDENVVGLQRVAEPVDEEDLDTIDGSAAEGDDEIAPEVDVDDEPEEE
Procedure, shortened: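 IC50 values derive from 10-point titrations of compound (in DMSO). Phosphate formed from 250 μM ATP was quantified by acidic molybdate/malachite green after quenching.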
Molecule `CCNC(=O)Nc1cc(-c2nc(C(F)(F)F)cs2)c(-c2ccc3c(c2)c(=O)c(C(=O)O)cn3C[C@@H]2CCCNC2)cn1` [Example 242, (R)-1-((1-piperidin-3-yl)methyl)-6-(6-(3-ethylureido)-4-(4-(trifluoromethyl)thiazol-2-yl)pyridin-3-yl)-4-oxo-1,4-dihydroquinoline-3-carboxylic acid] has an inhibition at 1 µM of 104%.
Molecule `CCNC(=O)Nc1cc(-c2nc(C(F)(F)F)cs2)c(-c2ccc3c(c2)c(=O)c(C(=O)O)cn3C[C@H]2CCNC2)cn1` [Example 243, (S)-6-(6-(3-ethylureido)-4-(4-(trifluoromethyl)thiazol-2-yl)pyridin-3-yl)-4-oxo-1-(pyrrolidin-3-ylmethyl)-1,4-dihydroquinoline-3-carboxylic acid] has an inhibition at 1 µM of 116%.
In the case of `CCNC(=O)Nc1cc(-c2nc(C(F)(F)F)cs2)c(-c2ccc3c(c2)c(=O)c(C(=O)O)cn3[C@@H]2CCNC2)cn1` [Example 244, (R)-6-(6-(3-ethylureido)-4-(4-(trifluoromethyl)thiazol-2-yl)pyridin-3-yl)-4-oxo-1-(pyrrolidin-3-yl)-1,4-dihydroquinoline-3-carboxylic acid], the inhibition at 1 µM is reported as 111%.
For `CCNC(=O)Nc1cc(-c2nc(C(F)(F)F)cs2)c(-c2ccc3c(c2)c(=O)c(C(=O)O)cn3[C@H]2CCCNC2)cn1` [Example 245, (S)-6-(6-(3-ethylureido)-4-(4-(trifluoromethyl)thiazol-2-yl)pyridin-3-yl)-4-oxo-1-(piperidin-3-yl)-1,4-dihydroquinoline-3-carboxylic acid], the inhibition at 1 µM was 105%.
Work on `CCNC(=O)Nc1cc(-c2nc(C(F)(F)F)cs2)c(-c2ccc3c(c2)c(=O)c(C(=O)O)cn3[C@@H]2CCN(C)C2)cn1` [Example 246, (R)-6-(6-(3-ethylureido)-4-(4-(trifluoromethyl)thiazol-2-yl)pyridin-3-yl)-1-(1-methylpyrrolidin-3-yl)-4-oxo-1,4-dihydroquinoline-3-carboxylic acid] yielded an inhibition at 1 µM of 104%.
Molecule `CCNC(=O)Nc1cc(-c2nc(C(F)(F)F)cs2)c(-c2ccc3c(c2)c(=O)c(C(=O)O)cn3C[C@@H]2CCCN(C)C2)cn1` [Example 247, (R)-6-(6-(3-ethylureido)-4-(4-(trifluoromethyl)thiazol-2-yl)pyridin-3-yl)-1-((1-methylpiperidin-3-yl)methyl)-4-oxo-1,4-dihydroquinoline-3-carboxylic acid] has an inhibition at 1 µM of 115%.
Molecule `CCNC(=O)Nc1cc(-c2nc(C(F)(F)F)cs2)c(-c2ccc3c(c2)c(=O)c(C(=O)O)cn3[C@H]2CCCN(C)C2)cn1` [Example 248, (S)-6-(6-(3-ethylureido)-4-(4-(trifluoromethyl)thiazol-2-yl)pyridin-3-yl)-1-(1-methylpiperidin-3-yl)-4-oxo-1,4-dihydroquinoline-3-carboxylic acid] has an inhibition at 1 µM of 103%.
`CCNC(=O)Nc1cc(-c2nc(C(F)(F)F)cs2)c(-c2ccc3c(c2)c(=O)c(C(=O)O)cn3C[C@H]2CCN(CC)C2)cn1` [Example 249, (S)-1-((1-ethylpyrrolidin-3-yl)methyl)-6-(6-(3-ethylureido)-4-(4-(trifluoromethyl)thiazol-2-yl)pyridin-3-yl)-4-oxo-1,4-dihydroquinoline-3-carboxylic acid] was tested, and the inhibition at 1 µM was 113%.
For `CCNC(=O)Nc1cc(-c2nc(C(F)(F)F)cs2)c(-c2ccc3c(c2)c(=O)c(C(=O)O)cn3[C@@H]2CCN(CC)C2)cn1` [Example 250, (R)-1-(1-ethylpyrrolidin-3-yl)-6-(6-(3-ethylureido)-4-(4-(trifluoromethyl)thiazol-2-yl)pyridin-3-yl)-4-oxo-1,4-dihydroquinoline-3-carboxylic acid], the inhibition at 1 µM was 112%.
`CCNC(=O)Nc1cc(-c2nc(C(F)(F)F)cs2)c(-c2ccc3c(c2)c(=O)c(C(=O)O)cn3C[C@@H]2CCCN(CC)C2)cn1` [Example 251, (R)-1-((1-ethylpiperidin-3-yl)methyl)-6-(6-(3-ethylureido)-4-(4-(trifluoromethyl)thiazol-2-yl)pyridin-3-yl)-4-oxo-1,4-dihydroquinoline-3-carboxylic acid] was tested, and the inhibition at 1 µM was 113%.
`CCNC(=O)Nc1cc(-c2nc(C(F)(F)F)cs2)c(-c2ccc3c(c2)c(=O)c(C(=O)O)cn3[C@@H]2CCCN(CC)C2)cn1` [Example 252, (R)-1-(1-ethylpiperidin-3-yl)-6-(6-(3-ethylureido)-4-(4-(trifluoromethyl)thiazol-2-yl)pyridin-3-yl)-4-oxo-1,4-dihydroquinoline-3-carboxylic acid] showed an inhibition at 1 µM of 105%.
With `CCNC(=O)Nc1cc(-c2nc(C(F)(F)F)cs2)c(-c2ccc3c(c2)c(=O)c(C(=O)O)cn3CC(C)N(C)C)cn1` (stereo not drawn) [Example 277, 1-(2-(dimethylamino)propyl)-6-(6-(3-ethylureido)-4-(4-(trifluoromethyl)thiazol-2-yl)pyridin-3-yl)-4-oxo-1,4-dihydroquinoline-3-carboxylic acid] the inhibition at 1 µM was 103%.
In the case of `CCNC(=O)Nc1cc(-c2nc(C(F)(F)F)cs2)c(-c2ccc3c(c2)c(=O)c(C(=O)O)cn3[C@@H]2CCCC[C@H]2O)cn1` [Example 278, 6-(6-(3-ethylureido)-4-(4-(trifluoromethyl)thiazol-2-yl)pyridin-3-yl)-1-((1R,2R)-2-hydroxycyclohexyl)-4-oxo-1,4-dihydroquinoline-3-carboxylic acid], the inhibition at 1 µM is reported as 101%.
With `CCNC(=O)Nc1cc(-c2nc(C(F)(F)F)cs2)c(-c2ccc3c(c2)c(=O)c(C(=O)O)cn3[C@H]2CCCC[C@@H]2O)cn1` [Example 279, 6-(6-(3-ethylureido)-4-(4-(trifluoromethyl)thiazol-2-yl)pyridin-3-yl)-1-((1S,2S)-2-hydroxycyclohexyl)-4-oxo-1,4-dihydroquinoline-3-carboxylic acid] the inhibition at 1 µM was 103%.
`CCNC(=O)Nc1cc(-c2nc(C(F)(F)F)cs2)c(-c2ccc3c(c2)c(=O)c(C(=O)O)cn3[C@H]2CCCN(CCS(C)(=O)=O)C2)cn1` [Example 280, (S)-ethyl 6-(6-(3-ethylureido)-4-(4-(trifluoromethyl)thiazol-2-yl)pyridin-3-yl)-1-(1-(2-(methylsulfonyl)ethyl)piperidin-3-yl)-4-oxo-1,4-dihydroquinoline-3-carboxylic acid] showed an inhibition at 1 µM of 103%.
Molecule `CCNC(=O)Nc1cc(-c2nc(C(F)(F)F)cs2)c(-c2ccc3c(c2)c(=O)c(C(=O)O)cn3[C@@H]2CCCN(CCS(C)(=O)=O)C2)cn1` [Example 281, (R)-ethyl 6-(6-(3-ethylureido)-4-(4-(trifluoromethyl)thiazol-2-yl)pyridin-3-yl)-1-(1-(2-(methylsulfonyl)ethyl)piperidin-3-yl)-4-oxo-1,4-dihydroquinoline-3-carboxylic acid] has an inhibition at 1 µM of 106%.
With `CCNC(=O)Nc1cc(-c2nc(C(F)(F)F)cs2)c(-c2ccc3c(c2)c(=O)c(C(=O)O)cn3[C@@H]2CCCN(Cc3cccn3C)C2)cn1` [Example 282, (R)-ethyl 6-(6-(3-ethylureido)-4-(4-(trifluoromethyl)thiazol-2-yl)pyridin-3-yl)-1-(1-((1-methyl-1H-pyrrol-2-yl)methyl)piperidin-3-yl)-4-oxo-1,4-dihydroquinoline-3-carboxylic acid] the inhibition at 1 µM was 105%.
Molecule `CCNC(=O)Nc1cc(-c2nc(C(F)(F)F)cs2)c(-c2ccc3c(c2)c(=O)c(C(=O)O)cn3[C@H]2CCCN(Cc3cccn3C)C2)cn1` [Example 283, (S)-ethyl 6-(6-(3-ethylureido)-4-(4-(trifluoromethyl)thiazol-2-yl)pyridin-3-yl)-1-(1-((1-methyl-1H-pyrrol-2-yl)methyl)piperidin-3-yl)-4-oxo-1,4-dihydroquinoline-3-carboxylic acid] has an inhibition at 1 µM of 102%.
